Data published in article PMC6881182 (Nature microbiology, 2019).

Key:
[1] = test system: CC(=O)N[C@H]1[C@H]2O[C@@](C(=O)O)(C[C@@H]1O)O[C@@H]2[C@H](O)CO; assay: purified protein; conditions: NAD+ or NADH
[2] = biological target: EcNanA (E. coli Neu5Ac lyase/aldolase) (Escherichia coli, UniProt P0A6L4); assay: lactate dehydrogenase-coupled aldolase assay; assay type: biochemical
[3] = biological target: T1, RgNanA (RUMGNA_02692), sialic acid aldolase (Mediterraneibacter gnavus, UniProt A7B555, K177A); assay: X-ray crystal structure; assay type: binding
T1 sequence (A7B555 11-315 K177A): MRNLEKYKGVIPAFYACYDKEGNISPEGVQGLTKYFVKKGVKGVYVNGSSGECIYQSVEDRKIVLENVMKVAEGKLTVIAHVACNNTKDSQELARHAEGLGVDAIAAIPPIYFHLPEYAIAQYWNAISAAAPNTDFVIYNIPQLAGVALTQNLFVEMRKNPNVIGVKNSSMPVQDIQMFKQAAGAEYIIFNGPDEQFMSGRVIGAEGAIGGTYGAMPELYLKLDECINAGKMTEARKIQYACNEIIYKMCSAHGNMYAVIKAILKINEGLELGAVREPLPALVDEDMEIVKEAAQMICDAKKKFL

[4] = biological target: RgNanOx (RUMGNA_02695), oxidoreductase (Mediterraneibacter gnavus, UniProt A7B558); assay: HPLC of DMB-labelled product with and without cofactor; assay type: biochemical
purified protein = substrate: CC(=O)N[C@@H]1[C@@H](O)CC(O)(C(=O)O)O[C@H]1C(O)C(O)CO; assay: purified protein

## RgNanOx (RUMGNA_02695), oxidoreductase (Mediterraneibacter gnavus ATCC 29149)
[1]
  Km: 74 ± 14 µM

## CC(=O)N[C@@H]1[C@@H](O)CC(O)(C(=O)O)O[C@H]1C(O)C(O)CO (stereo partly drawn) [Neu5Ac]
[2]
  lactate dehydrogenase-coupled aldolase assay (control enzyme): RgNanA and EcNanA (E. coli Neu5Ac lyase/aldolase used as a control) showed activity against Neu5Ac
[3]
  X-ray crystal structure (5 mM Neu5Ac soak of inactive mutant): complex between an inactive mutant, RgNanA K167A, and Neu5Ac showed Neu5Ac in the open-chain ketone form

## NC(=O)c1ccc[n+]([C@@H]2O[C@H](COP(=O)([O-])OP(=O)(O)OC[C@H]3O[C@@H](n4cnc5c(N)ncnc54)[C@H](O)[C@@H]3O)[C@@H](O)[C@H]2O)c1 [NAD^+]
[4]
  HPLC of DMB-labelled product with and without cofactor (500 μM): Neu5Ac was produced in the presence of NAD^+ or NADH, but not in the presence of FAD

## NC(=O)C1=CN([C@@H]2O[C@H](COP(=O)(O)OP(=O)(O)OC[C@H]3O[C@@H](n4cnc5c(N)ncnc54)[C@H](O)[C@@H]3O)[C@@H](O)[C@H]2O)C=CC1 [NADH]
[4]
  HPLC of DMB-labelled product with and without cofactor (500 μM): Neu5Ac was produced in the presence of NAD^+ or NADH, but not in the presence of FAD

B1: RgNanA (RUMGNA_02692), sialic acid aldolase (Mediterraneibacter gnavus ATCC 29149) (protein)
chain: MAFMKQRSKTMRNLEKYKGVIPAFYACYDKEGNISPEGVQGLTKYFVKKGVKGVYVNGSSGECIYQSVEDRKIVLENVMKVAEGKLTVIAHVACNNTKDSQELARHAEGLGVDAIAAIPPIYFHLPEYAIAQYWNAISAAAPNTDFVIYNIPQLAGVALTQNLFVEMRKNPNVIGVKNSSMPVQDIQMFKQAAGAEYIIFNGPDEQFMSGRVIGAEGAIGGTYGAMPELYLKLDECINAGKMTEARKIQYACNEIIYKMCSAHGNMYAVIKAILKINEGLELGAVREPLPALVDEDMEIVKEAAQMICDAKKKFL
Purified protein
  Km: 1473 ± 98 µM
